The values that follow come from US7786141B2 (Vertex Pharmaceuticals Incorporated, priority 2004, dated 2010).

The target of assay [1] is T1, M1 muscarinic receptor (Homo sapiens, UniProt P11229).
T1 construct: expressed in transfected cells; host or cells: CHO (M1-CHO)
T1 sequence (P11229 1-460): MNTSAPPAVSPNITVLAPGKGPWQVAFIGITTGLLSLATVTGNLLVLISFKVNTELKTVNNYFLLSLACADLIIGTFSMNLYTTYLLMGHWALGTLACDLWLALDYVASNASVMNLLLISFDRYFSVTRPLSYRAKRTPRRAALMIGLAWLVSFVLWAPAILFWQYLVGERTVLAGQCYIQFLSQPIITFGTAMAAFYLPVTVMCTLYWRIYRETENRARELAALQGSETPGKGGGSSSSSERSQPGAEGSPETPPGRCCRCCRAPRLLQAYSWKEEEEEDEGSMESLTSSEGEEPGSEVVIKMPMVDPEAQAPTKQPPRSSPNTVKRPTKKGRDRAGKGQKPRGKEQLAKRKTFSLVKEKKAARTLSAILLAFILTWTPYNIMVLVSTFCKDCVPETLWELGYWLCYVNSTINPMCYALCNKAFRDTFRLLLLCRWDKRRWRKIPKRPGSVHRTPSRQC
The assay can be described thus: Functional mobilization of intracellular calcium (FLIPR) in M1-CHO cells. It counts as cell-based. The following applies: Table 4; for Emax: 100% efficacy is the maximum response obtained with the Carbachol control; for M1 Activity: M1 receptor, calcium mobilization (FLIPR). A digest of the protocol:
(§1)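 Intracellular calcium rise is measured by FLIPR fluorescence over 60 sec in CHO cells carrying human M1 or M4 receptors. Compounds are tested alone as agonists, or pre-incubated 15 min (or co-applied) ahead of carbachol at its EC80 to detect inhibition.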

Assay [2] deals with T2, M4 muscarinic receptor (Homo sapiens, UniProt P08173).
T2 construct: expressed in transfected cells; host or cells: CHO (M4-CHO)
T2 sequence (P08173 1-479): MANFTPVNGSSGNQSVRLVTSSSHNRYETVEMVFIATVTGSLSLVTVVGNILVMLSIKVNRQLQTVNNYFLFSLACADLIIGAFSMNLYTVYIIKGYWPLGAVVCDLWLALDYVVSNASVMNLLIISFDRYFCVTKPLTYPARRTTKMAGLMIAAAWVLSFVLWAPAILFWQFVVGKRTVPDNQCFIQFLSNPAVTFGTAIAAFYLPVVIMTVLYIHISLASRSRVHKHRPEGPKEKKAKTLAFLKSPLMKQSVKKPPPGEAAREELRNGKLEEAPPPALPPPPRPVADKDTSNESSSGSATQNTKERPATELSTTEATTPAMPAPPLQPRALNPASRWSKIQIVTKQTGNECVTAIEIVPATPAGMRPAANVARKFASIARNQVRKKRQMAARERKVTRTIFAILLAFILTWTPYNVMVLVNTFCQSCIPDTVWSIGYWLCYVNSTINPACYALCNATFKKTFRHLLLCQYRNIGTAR
The assay is described as follows: Functional mobilization of intracellular calcium (FLIPR) in M4-CHO cells. The format is cell-based. The settings on record: Table 4; for Emax: 100% efficacy is the maximum response obtained with the Carbachol control; for M4 Activity: M4 receptor, calcium mobilization (FLIPR). Summed up: as §1

Take `CC(C)N(C(=O)N[C@H]1CC2(CCN(C3CC4CC[C@@H]3C4)CC2)c2ccccc21)C(C)C` (some centres unmarked) [compound 960]: in assay [1], the maximum response (Emax) is less than 25% and the “M1 Activity” value is “x (activity was measured to be greater than 5.0 μM)”. In addition, in assay [2], the Emax lay in the range of 25 to 100%; the “M4 Activity” value was “xx (activity was measured to be between 2.0 μM and 5.0 μM)”.
In the case of `CCOC(=O)N1CCC(N2CCC3(CC[C@H](NC(=O)N(C)C)c4ccccc43)CC2)CC1` [compound 961], in assay [1], the Emax was in the range of 25 to 100% and the “M1 Activity” value is “xxx (activity was measured to be less than 2.0 μM)”. Moreover, in assay [2], the maximum response (Emax) lay within 25 to 100% and the “M4 Activity” value is “xxx (activity was measured to be less than 2.0 μM)”.
With `CC(=O)NC1CCC2(CCN(CCC3CCN(C(=O)OCC(C)C)CC3)CC2)c2ccccc21` (centres unmarked) [compound 962], in assay [1], the Emax is less than 25% and the “M1 Activity” value is recorded as “x (activity was measured to be greater than 5.0 μM)”. In assay [2], the Emax is less than 25% and the “M4 Activity” value was “x (activity was measured to be greater than 5.0 μM)”.
`CN(C)C(=O)N1CC2(CCN(C3CCN(c4ncnc5ccsc45)CC3)CC2)c2cc(F)ccc21` [compound 965]: in assay [1], the Emax was in the range of 25 to 100% and the “M1 Activity” value is on record as “x (activity was measured to be greater than 5.0 μM)”. In addition, in assay [2], the Emax was 25 to 100% and the “M4 Activity” value was “xxx (activity was measured to be less than 2.0 μM)”.
Regarding `CC(=O)NC1CCC2(CCN(CCC3CCN(C(=O)C(C)(C)C)CC3)CC2)c2ccccc21` (centres unmarked) [compound 966], in assay [1], the Emax was 25 to 100% and the “M1 Activity” value was “xxx (activity was measured to be less than 2.0 μM)”. In assay [2], the Emax is less than 25% and the “M4 Activity” value is “x (activity was measured to be greater than 5.0 μM)”.
With `CCc1nccnc1N1CCC(N2CCC3(CC2)CN(C(=O)N(C)C)c2ccc(F)cc23)CC1` [compound 967], in assay [1], the maximum response (Emax) was in the range of 25 to 100%; the “M1 Activity” value was “xx (activity was measured to be between 2.0 μM and 5.0 μM)”. For the same compound, in assay [2], the maximal response (Emax) fell in the range of 25 to 100%; the “M4 Activity” value is “xx (activity was measured to be between 2.0 μM and 5.0 μM)”.
With `CC(=O)N1CC2(CCN(CC3CCC(C)=CC3C)CC2)c2cc(F)ccc21` (centres unmarked) [compound 968], in assay [1], the Emax was less than 25% and the “M1 Activity” value is on record as “x (activity was measured to be greater than 5.0 μM)”. In assay [2], the Emax is less than 25% and the “M4 Activity” value is listed as “x (activity was measured to be greater than 5.0 μM)”.
Take `CC(=O)NC1CCC2(CCN(CCC3CCN(S(C)(=O)=O)CC3)CC2)c2ccccc21` (centres unmarked) [compound 969]: in assay [1], the Emax lay within 25 to 100% and the “M1 Activity” value was “xxx (activity was measured to be less than 2.0 μM)”. Also, in assay [2], the Emax is less than 25% and the “M4 Activity” value is “x (activity was measured to be greater than 5.0 μM)”.
Regarding `CC(=O)N1CC2(CCN(C3CC4CCC(C3)N4C(=O)O[C@@H]3CCOC3)CC2)c2ccccc21` (some centres unmarked) [compound 970], in assay [1], the Emax was in the range of 25 to 100% and the “M1 Activity” value is recorded as “xxx (activity was measured to be less than 2.0 μM)”. In addition, in assay [2], the maximum response (Emax) was 25 to 100% and the “M4 Activity” value is listed as “xxx (activity was measured to be less than 2.0 μM)”.
Regarding `CN(C)C(=O)N1CC2(CCN(C3CCN(C(=O)c4cccc(F)c4)CC3)CC2)c2cc(F)ccc21` [compound 972], in assay [1], the Emax was in the range of 25 to 100%; the “M1 Activity” value was “xx (activity was measured to be between 2.0 μM and 5.0 μM)”. Further, in assay [2], the Emax was less than 25% and the “M4 Activity” value is “x (activity was measured to be greater than 5.0 μM)”.
In the case of `CC(=O)N1CC2(CCN(C3CCN(c4nncs4)CC3)CC2)c2ccccc21` [compound 973], in assay [1], the Emax is 25 to 100% and the “M1 Activity” value is on record as “x (activity was measured to be greater than 5.0 μM)”. In assay [2], the Emax was less than 25% and the “M4 Activity” value was “x (activity was measured to be greater than 5.0 μM)”.
As to `CCOC(=O)N1CC[C@@H](CN2CCC3(CC2)CN(C(=O)N(C)C)c2ccc(F)cc23)C1` [compound 974], in assay [1], the Emax is 25 to 100% and the “M1 Activity” value is reported as “xxx (activity was measured to be less than 2.0 μM)”. In addition, in assay [2], the Emax lay within 25 to 100% and the “M4 Activity” value is listed as “xxx (activity was measured to be less than 2.0 μM)”.
Consider `CC(=O)N1CC2(CCN(C3CCN(c4cncc(C5=CCCC5)n4)CC3)CC2)c2ccccc21` [compound 975], for which, in assay [1], the maximum response (Emax) is less than 25% and the “M1 Activity” value is reported as “x (activity was measured to be greater than 5.0 μM)”. For the same compound, in assay [2], the Emax was less than 25% and the “M4 Activity” value is reported as “x (activity was measured to be greater than 5.0 μM)”.
Consider `CC(=O)N1CC2(CCN(C3CCN(c4nccs4)CC3)CC2)c2cc(F)ccc21` [compound 976], for which, in assay [1], the Emax lay within 25 to 100% and the “M1 Activity” value is on record as “xxx (activity was measured to be less than 2.0 μM)”. Moreover, in assay [2], the Emax lay within 25 to 100% and the “M4 Activity” value was “xxx (activity was measured to be less than 2.0 μM)”.
For the compound `CC(=O)NC1CC2(CCN(C3CCN(C(=O)c4cccc(C(F)(F)F)c4)CC3)CC2)c2ccccc21` (centres unmarked) [compound 978], in assay [1], the Emax was less than 25% and the “M1 Activity” value is recorded as “x (activity was measured to be greater than 5.0 μM)”. Also, in assay [2], the Emax is less than 25% and the “M4 Activity” value is recorded as “x (activity was measured to be greater than 5.0 μM)”.
In the case of `O=C(N[C@H]1CC2(CCN(C3CC4CC[C@@H]3C4)CC2)c2ccccc21)N1CCOCC1` (some centres unmarked) [compound 979], in assay [1], the maximum response (Emax) lay in the range of 25 to 100% and the “M1 Activity” value is on record as “x (activity was measured to be greater than 5.0 μM)”. In addition, in assay [2], the maximal effect (Emax) was in the range of 25 to 100% and the “M4 Activity” value is reported as “xxx (activity was measured to be less than 2.0 μM)”.
Consider `CCOC(=O)N1C2CCC1CC(N1CCC3(CC(=O)c4cc(F)ccc43)C1)C2` (centres unmarked) [compound 980], for which, in assay [1], the maximal response (Emax) is greater than 100% and the “M1 Activity” value is recorded as “xxx (activity was measured to be less than 2.0 μM)”. Further, in assay [2], the Emax was 25 to 100% and the “M4 Activity” value is on record as “xxx (activity was measured to be less than 2.0 μM)”.
Regarding `CCCC#CCOC(=O)N1CC[C@H](CN2CCC3(CC2)CN(C(=O)N(C)C)c2ccc(F)cc23)C1` [compound 981], in assay [1], the Emax was 25 to 100% and the “M1 Activity” value is listed as “xxx (activity was measured to be less than 2.0 μM)”. In addition, in assay [2], the Emax lay in the range of 25 to 100% and the “M4 Activity” value is recorded as “xxx (activity was measured to be less than 2.0 μM)”.
For the compound `Cc1ccc2c(c1)C1(CCN(C3CC4CCC3C4)CC1)CN2C(=O)c1snnc1C` (centres unmarked) [compound 982], in assay [1], the maximal effect (Emax) was less than 25% and the “M1 Activity” value was “x (activity was measured to be greater than 5.0 μM)”. Besides, in assay [2], the Emax is less than 25% and the “M4 Activity” value is given as “x (activity was measured to be greater than 5.0 μM)”.
`O=C1CC2(CCN(C3CCCCCC3)CC2)c2cc(Cl)ccc21` [compound 983]: in assay [1], the Emax lay in the range of 25 to 100% and the “M1 Activity” value was “xxx (activity was measured to be less than 2.0 μM)”. Further, in assay [2], the maximum response (Emax) lay in the range of 25 to 100% and the “M4 Activity” value is recorded as “xxx (activity was measured to be less than 2.0 μM)”.
As for `CCCN1CC2(CCN(C[C@H]3C[C@H]4C=CC3C4)CC2)c2cc(F)ccc21` [compound 984], in assay [1], the Emax lay within 25 to 100%; the “M1 Activity” value is “xx (activity was measured to be between 2.0 μM and 5.0 μM)”. Further, in assay [2], the maximal response (Emax) was in the range of 25 to 100% and the “M4 Activity” value is “xxx (activity was measured to be less than 2.0 μM)”.
Take `CC(=O)NC1CC2(CCN(CC3CC4C=CC3C4)CC2)c2ccc(C)cc21` (centres unmarked) [compound 985]: in assay [1], the Emax was 25 to 100% and the “M1 Activity” value was “x (activity was measured to be greater than 5.0 μM)”. In assay [2], the Emax was in the range of 25 to 100%; the “M4 Activity” value was “xx (activity was measured to be between 2.0 μM and 5.0 μM)”.
For the compound `CCOC(=O)N1CCCC(N2CCCC3(CC2)CN(C(C)=O)c2ccc(F)cc23)CC1` (centres unmarked) [compound 986], in assay [1], the maximal effect (Emax) lay in the range of 25 to 100% and the “M1 Activity” value was “xxx (activity was measured to be less than 2.0 μM)”. Further, in assay [2], the Emax lay within 25 to 100% and the “M4 Activity” value is recorded as “xxx (activity was measured to be less than 2.0 μM)”.
